According to ChEMBL document CHEMBL4680278 (J Med Chem, 2020):

Legend:
[1] = molecular target: T1, 5-hydroxytryptamine receptor 2C (Homo sapiens, UniProt P28335); test: Inhibition of 5-HT2C (unknown origin)
T1 sequence (P28335 whole entry): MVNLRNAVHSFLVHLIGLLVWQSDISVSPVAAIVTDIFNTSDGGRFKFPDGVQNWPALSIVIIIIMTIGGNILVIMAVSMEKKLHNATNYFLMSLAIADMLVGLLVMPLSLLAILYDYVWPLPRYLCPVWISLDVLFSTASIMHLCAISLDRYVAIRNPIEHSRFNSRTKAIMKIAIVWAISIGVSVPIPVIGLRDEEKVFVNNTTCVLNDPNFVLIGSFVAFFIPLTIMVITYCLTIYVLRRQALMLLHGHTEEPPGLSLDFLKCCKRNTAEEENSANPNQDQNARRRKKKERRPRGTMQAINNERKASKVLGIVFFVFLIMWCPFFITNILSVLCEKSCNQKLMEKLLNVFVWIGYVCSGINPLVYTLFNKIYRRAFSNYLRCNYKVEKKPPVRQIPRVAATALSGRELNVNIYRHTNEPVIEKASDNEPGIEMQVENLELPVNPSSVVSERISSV

[2] = Apparent oral clearance in human in fed state at 5 to 20 mg using oromucosal-spray formulation cotreated with THC by GC-MS analysis; assay type: ADME; settings: in vivo, dose 5-20 mg
[3] = Elimination half-life in human at 10 mg using oromucosal-spray formulation measured upto 24 hrs by LC-MS/MS assay; assay type: ADME; settings: in vivo, read-out: beta t1/2 (converted)
[4] = Elimination half-life in human at 10 mg, po using PTL401 formulation measured upto 24 hrs by LC-MS/MS assay; assay type: ADME, organism-based; settings: in vivo, read-out: beta t1/2 (converted)
[5] = Cmax in human plasma at 14+/- 15 mg, po; assay type: ADME, cell-free; set-up: route oral, dose 14 mg; settings: 14 mg
[6] = Elimination half-life in human at 20 mg using aerosol spray measured for 6 weeks; assay type: ADME; settings: in vivo, inhaled_or_intranasal, 1008 h
[7] = Cmax in mouse brain at 10 mg/kg, sc measured after 1 to 3 hrs by HPLC analysis; assay type: ADME, organism-based; set-up: route subcutaneous, time lower 1 hrs, dose 10 mg/kg, time upper 3 hrs
[8] = molecular target: T2, Cytochrome P450 2C11 (Rattus norvegicus, UniProt P08683); test: Competitive inhibition of CYP2C11 in rat liver microsomes; assay type: ADME
T2 sequence (P08683 whole entry): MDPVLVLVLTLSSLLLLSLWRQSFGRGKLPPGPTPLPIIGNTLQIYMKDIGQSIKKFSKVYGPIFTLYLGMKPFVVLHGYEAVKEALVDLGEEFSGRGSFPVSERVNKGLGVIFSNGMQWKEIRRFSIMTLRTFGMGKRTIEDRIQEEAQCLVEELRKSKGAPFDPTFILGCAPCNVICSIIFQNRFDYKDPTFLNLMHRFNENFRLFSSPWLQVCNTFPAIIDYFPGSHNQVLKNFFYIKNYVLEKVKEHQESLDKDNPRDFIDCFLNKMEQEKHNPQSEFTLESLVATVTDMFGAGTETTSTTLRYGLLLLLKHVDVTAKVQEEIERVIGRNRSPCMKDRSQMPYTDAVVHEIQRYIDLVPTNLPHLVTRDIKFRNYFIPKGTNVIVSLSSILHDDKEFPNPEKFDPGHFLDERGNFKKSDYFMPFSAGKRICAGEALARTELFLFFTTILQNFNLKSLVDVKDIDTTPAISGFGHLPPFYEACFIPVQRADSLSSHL

[9] = molecular target: Cytochrome P450 3A7 (Homo sapiens, UniProt P24462); test: Mixed type inhibition of human recombinant CYP3A7 expressed in baculovirus-infected insect cells using diltiazem as substrate incubated for 30 mins followed by NADPH-generating system addition by Michaelis-Menten plot analysis; assay type: ADME
[10] = Critical aggregation concentration of compound by dynamic light scattering; assay type: physicochemical
[11] = Half-life in human at 10 mg/kg, po BID administered for 6 weeks measured weekly for 15 weeks by GC/MS analysis; assay type: ADME, organism-based; settings: in vivo
[12] = molecular target: Delta-type opioid receptor (Homo sapiens, UniProt P41143); test: Inhibition of delta-type opioid receptor receptor (unknown origin)
[13] = molecular target: T3, 5-hydroxytryptamine receptor 1A (Homo sapiens, UniProt P08908); test: Displacement of [3H]8-OH-DPAT from human 5-HT1a receptor expressed in CHO cells incubated for 30 mins by liquid scintillation counting method
T3 sequence (P08908 whole entry): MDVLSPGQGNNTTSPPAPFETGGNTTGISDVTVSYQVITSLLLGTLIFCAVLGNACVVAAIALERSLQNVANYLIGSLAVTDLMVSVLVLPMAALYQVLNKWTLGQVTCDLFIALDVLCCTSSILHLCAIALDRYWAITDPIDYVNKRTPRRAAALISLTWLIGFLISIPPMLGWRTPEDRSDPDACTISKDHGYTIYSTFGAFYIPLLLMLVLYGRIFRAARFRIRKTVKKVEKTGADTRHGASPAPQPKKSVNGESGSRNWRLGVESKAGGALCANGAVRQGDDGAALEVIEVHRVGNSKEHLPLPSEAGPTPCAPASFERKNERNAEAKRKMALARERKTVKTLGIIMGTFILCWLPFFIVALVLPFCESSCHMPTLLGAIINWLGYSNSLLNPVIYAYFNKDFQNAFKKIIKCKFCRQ

[14] = molecular target: T4, Alpha-2C adrenergic receptor (Homo sapiens, UniProt P18825); test: Inhibition of alpha2C receptor (unknown origin)
T4 sequence (P18825 whole entry): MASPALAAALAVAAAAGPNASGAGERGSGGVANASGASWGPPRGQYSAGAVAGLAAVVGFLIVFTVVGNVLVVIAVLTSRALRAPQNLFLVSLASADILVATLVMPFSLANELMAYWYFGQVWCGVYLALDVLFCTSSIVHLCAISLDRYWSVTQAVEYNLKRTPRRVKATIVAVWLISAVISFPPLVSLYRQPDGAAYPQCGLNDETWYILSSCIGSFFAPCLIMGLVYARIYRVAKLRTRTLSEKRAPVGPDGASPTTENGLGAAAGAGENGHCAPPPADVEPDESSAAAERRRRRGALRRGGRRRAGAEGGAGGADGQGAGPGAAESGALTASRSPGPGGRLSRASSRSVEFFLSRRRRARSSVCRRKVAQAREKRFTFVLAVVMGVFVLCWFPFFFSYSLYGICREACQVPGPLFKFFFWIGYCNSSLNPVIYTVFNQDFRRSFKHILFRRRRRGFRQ

[15] = Elimination rate constant in human using oromucosal-spray measured for 6 weeks
[16] = Half-life in human at 20 mg via smoking measured after 0.05 to 72 hrs by gas chromatograph mass spectrometry; assay type: ADME; settings: in vivo, inhaled or intranasal, time 0.05-72 hrs
[17] = Protein binding in human plasma incubated for 20 to 24 hrs; assay type: ADME, cell-free; settings: time 20-24 hrs, read-out: PPB (converted)
[18] = Drug degradation in simulated gastric fluid at 40 mg incubated for 2 hrs by UPLC-MS analysis; assay type: ADME; settings: read-out: Drug degradation
[19] = molecular target: Cytochrome P450 3A5 (Homo sapiens, UniProt P20815); test: Competitive inhibition of human recombinant CYP3A5 expressed in baculovirus-infected insect cells using diltiazem as substrate incubated for 15 mins followed by NADPH-generating system addition by Michaelis-Menten plot analysis; assay type: ADME
[20] = clinical; settings: human, in vivo, other: aerosol spray, 20 mg
Description: Elimination rate constant in human at 20 mg using aerosol spray measured for 6 weeks

Delta-type opioid receptor, sequence (P41143 whole entry): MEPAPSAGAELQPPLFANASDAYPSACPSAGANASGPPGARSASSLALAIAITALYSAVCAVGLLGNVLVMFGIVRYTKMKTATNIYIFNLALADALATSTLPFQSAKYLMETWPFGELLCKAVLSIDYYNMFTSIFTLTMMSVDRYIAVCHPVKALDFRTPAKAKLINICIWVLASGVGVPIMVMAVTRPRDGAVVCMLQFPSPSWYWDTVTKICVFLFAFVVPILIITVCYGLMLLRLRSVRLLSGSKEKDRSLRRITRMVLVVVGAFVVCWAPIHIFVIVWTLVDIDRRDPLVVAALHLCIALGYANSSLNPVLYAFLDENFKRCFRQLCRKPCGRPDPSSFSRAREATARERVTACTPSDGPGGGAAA
Cytochrome P450 3A5, sequence (P20815 whole entry): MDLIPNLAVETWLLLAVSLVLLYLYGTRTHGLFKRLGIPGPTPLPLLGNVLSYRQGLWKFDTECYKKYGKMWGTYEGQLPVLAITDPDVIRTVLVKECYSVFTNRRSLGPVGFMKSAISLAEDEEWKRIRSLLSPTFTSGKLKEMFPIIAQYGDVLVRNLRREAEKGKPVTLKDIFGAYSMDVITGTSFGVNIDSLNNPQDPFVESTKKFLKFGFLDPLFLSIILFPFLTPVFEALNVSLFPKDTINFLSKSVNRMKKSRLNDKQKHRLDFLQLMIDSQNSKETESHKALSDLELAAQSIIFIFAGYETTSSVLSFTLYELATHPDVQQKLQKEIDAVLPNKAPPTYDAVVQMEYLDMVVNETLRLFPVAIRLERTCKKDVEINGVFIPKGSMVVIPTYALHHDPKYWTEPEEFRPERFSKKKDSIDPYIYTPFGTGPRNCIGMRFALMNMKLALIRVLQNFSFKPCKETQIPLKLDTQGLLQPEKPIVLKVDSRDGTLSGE
Cytochrome P450 3A7, sequence (P24462 whole entry): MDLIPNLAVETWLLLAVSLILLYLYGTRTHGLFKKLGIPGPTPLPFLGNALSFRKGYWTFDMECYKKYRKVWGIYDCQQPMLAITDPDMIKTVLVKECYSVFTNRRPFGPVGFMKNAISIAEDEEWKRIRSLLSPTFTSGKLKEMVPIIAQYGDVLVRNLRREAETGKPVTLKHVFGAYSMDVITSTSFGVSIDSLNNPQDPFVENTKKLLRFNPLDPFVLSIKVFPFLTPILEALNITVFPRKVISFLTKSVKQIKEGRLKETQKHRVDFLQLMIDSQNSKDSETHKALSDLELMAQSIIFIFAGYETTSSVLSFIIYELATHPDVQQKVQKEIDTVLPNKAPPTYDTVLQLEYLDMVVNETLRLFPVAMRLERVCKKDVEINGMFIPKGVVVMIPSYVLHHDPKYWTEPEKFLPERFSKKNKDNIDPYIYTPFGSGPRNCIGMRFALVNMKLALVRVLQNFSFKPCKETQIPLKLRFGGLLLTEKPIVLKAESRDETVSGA

C=C(C)[C@@H]1CCC(C)=C[C@H]1c1c(O)cc(CCCCC)cc1O [CANNABIDIOL]
Ki [1]: 1100 nM | CL/F [2]: 8880 mL/min | half-life [3]: 120 min | half-life [4]: 120 min | Cmax [5]: 0.9 nM | beta t1/2 [6]: 2 h | Cmax [7]: 1000 nM | Ki [8]: 20.7 µM | Ki [9]: 12.3 µM | CAC [10]: 12.5 µM | half-life [11]: 2880 min | Ki [12]: 6.4 µM | EC50 [13]: 8 µM | Ki [14]: 3.7 µM | k el at 1008 h [15]: 3.33e-05 s⁻¹ | half-life [16]: 1860 min | fraction unbound [17]: 0.1 | degraded at 2 h [18]: 98% | Ki [19]: 190 nM | k el at 1008 h [20]: 0.000119 s⁻¹
